In ChEMBL document CHEMBL4814047, “Design, synthesis and biological activity of N-(amino)piperazine-containing benzothiazinones against Mycobacterium tuberculosis” (Eur J Med Chem, 2021):
Converted amounts (≈) assume the structure as drawn.

Key:
[1] = Selectivity index, ratio of CC50 for African green monkey Vero cells to MIC for multidrug resistance Mycobacterium tuberculosis 16995 clinical isolate; format: toxicity; settings: read-out: Selectivity Index
[2] = tested on: Mycobacterium tuberculosis; assay: Antimycobacterial activity against multidrug resistance Mycobacterium tuberculosis 16833 clinical isolate incubated for 7 days by microplate alamar blue assay; format: functional; settings: Mycobacterium tuberculosis, 16833, 168 h; time 7 day
[3] = tested on: Mycobacterium tuberculosis; assay: Antimycobacterial activity against multidrug resistance Mycobacterium tuberculosis 16995 clinical isolate incubated for 7 days by microplate alamar blue assay; format: functional; settings: Mycobacterium tuberculosis, 16995, 168 h; time 7 day

SMILES	selectivity ratio [1]	MIC [2] [µg/mL]	MIC [3] [µg/mL]
O=c1nc(N2CCN(/N=C/c3ccc(OC(F)(F)F)cc3)CC2)sc2c([N+](=O)[O-])cc(C(F)(F)F)cc12	> 4000	< 0.016	< 0.016
CC(NN1CCN(c2nc(=O)c3cc(C(F)(F)F)cc([N+](=O)[O-])c3s2)CC1)c1ccc(OC(F)(F)F)cc1 (configuration not stated)	> 3620	0.0196 (≈ 0.0348 µM)	0.0177 (≈ 0.0314 µM)
O=c1nc(N2CCN(Nc3ccc(C(F)(F)F)cc3)CC2)sc2c([N+](=O)[O-])cc(C(F)(F)F)cc12	> 4000	< 0.016	< 0.016
O=c1nc(N2CCN(NCc3ccc(Br)cc3)CC2)sc2c([N+](=O)[O-])cc(C(F)(F)F)cc12	> 4000	< 0.016	< 0.016
O=c1nc(N2CCN(NCc3ccc(F)cc3)CC2)sc2c([N+](=O)[O-])cc(C(F)(F)F)cc12	> 4000	< 0.016	< 0.016
COc1ccc(CNN2CCN(c3nc(=O)c4cc(C(F)(F)F)cc([N+](=O)[O-])c4s3)CC2)cc1	> 2360	< 0.016	0.0271 (≈ 0.0547 µM)
CC(C)CN(CC(C)C)N1CCN(c2nc(=O)c3cc(C(F)(F)F)cc([N+](=O)[O-])c3s2)CC1	> 4000	< 0.016	< 0.016
O=c1nc(N2CCN(NCc3ccc(OC(F)(F)F)cc3)CC2)sc2c([N+](=O)[O-])cc(C(F)(F)F)cc12	> 4000	< 0.016	< 0.016
O=c1nc(N2CCN(Nc3ccc(OC(F)(F)F)cc3)CC2)sc2c([N+](=O)[O-])cc(C(F)(F)F)cc12	> 4000	< 0.016	< 0.016
O=c1nc(N2CCN(NCc3ccc(Cl)cc3)CC2)sc2c([N+](=O)[O-])cc(C(F)(F)F)cc12	> 4000	< 0.016	< 0.016
Cc1cccc(F)c1CNN1CCN(c2nc(=O)c3cc(C(F)(F)F)cc([N+](=O)[O-])c3s2)CC1	> 3930	0.0152 (≈ 0.0306 µM)	0.0163 (≈ 0.0328 µM)
CN(c1ccc(OC(F)(F)F)cc1)N1CCN(c2nc(=O)c3cc(C(F)(F)F)cc([N+](=O)[O-])c3s2)CC1	> 4000	< 0.016	< 0.016
O=c1nc(N2CCN(NC3CCCCC3)CC2)sc2c([N+](=O)[O-])cc(C(F)(F)F)cc12	> 4000	< 0.016	< 0.016
CON=C1CCC(N(C)N2CCN(c3nc(=O)c4cc(C(F)(F)F)cc([N+](=O)[O-])c4s3)CC2)CC1 (configuration not stated)	> 4000	< 0.016	< 0.016
Cc1ccc(CNN2CCN(c3nc(=O)c4cc(C(F)(F)F)cc([N+](=O)[O-])c4s3)CC2)cc1	> 4000	< 0.016	< 0.016
CN(CC1CCCCC1)N1CCN(c2nc(=O)c3cc(C(F)(F)F)cc([N+](=O)[O-])c3s2)CC1	> 4000	< 0.016	< 0.016
O=c1nc(N2CCN(NCC3CCCC3)CC2)sc2c([N+](=O)[O-])cc(C(F)(F)F)cc12	> 4000	< 0.016	< 0.016
O=c1nc(N2CCN(NCc3cccc(C(F)(F)F)c3)CC2)sc2c([N+](=O)[O-])cc(C(F)(F)F)cc12	> 4000	< 0.016	< 0.016
CC(c1ccc(OC(F)(F)F)cc1)N(C)N1CCN(c2nc(=O)c3cc(C(F)(F)F)cc([N+](=O)[O-])c3s2)CC1 (configuration not stated)	> 4000	< 0.016	< 0.016
O=c1nc(N2CCN(NCC3CCCCC3)CC2)sc2c([N+](=O)[O-])cc(C(F)(F)F)cc12	> 1830	< 0.016	< 0.016
C/C(=N\N1CCN(c2nc(=O)c3cc(C(F)(F)F)cc([N+](=O)[O-])c3s2)CC1)c1ccc(OC(F)(F)F)cc1	> 4000	< 0.016	< 0.016
O=c1nc(N2CCN(NCc3ccc(C(F)(F)F)cc3)CC2)sc2c([N+](=O)[O-])cc(C(F)(F)F)cc12	> 4000	< 0.016	< 0.016
O=c1nc(N2CCN(NCc3cc(F)cc(F)c3)CC2)sc2c([N+](=O)[O-])cc(C(F)(F)F)cc12	> 4000	< 0.016	< 0.016
O=c1nc(N2CCN(NCCC3CCCCC3)CC2)sc2c([N+](=O)[O-])cc(C(F)(F)F)cc12	> 2180	0.0357 (≈ 0.0735 µM)	0.0294 (≈ 0.0606 µM)
CC(C)(C)c1ccc(CNN2CCN(c3nc(=O)c4cc(C(F)(F)F)cc([N+](=O)[O-])c4s3)CC2)cc1	> 4000	< 0.016	< 0.016
NNC(=O)c1ccncc1 [ISONIAZID]		> 10	> 10
O=c1nc(N2CCN(CC3CCCCC3)CC2)sc2c([N+](=O)[O-])cc(C(F)(F)F)cc12 [MACOZINONE]	> 4000	< 0.016	< 0.016
CO[C@H]1/C=C/O[C@@]2(C)Oc3c(C)c(O)c4c(O)c(c(/C=N/N5CCN(C)CC5)c(O)c4c3C2=O)NC(=O)/C(C)=C\C=C\[C@H](C)[C@H](O)[C@@H](C)[C@@H](O)[C@@H](C)[C@H](OC(C)=O)[C@@H]1C [RIFAMPIN]		> 10	> 10
